Measured values published in patent publication US20060258644A1, “Pyrrolobenzodiazepines and heteroaryl, aryl and cycloalkylamino ketone derivatives as follicle stimulating hormone receptor (FSH-R) antagonists” (Wyeth, priority 2005, published 2006).

Columns and labels:
hFSH-R = biological target: T1, hFSH-R (Homo sapiens, UniProt P23945); test: cAMP accumulation bio-assay in CHO-3D2 cells (hFSH-R), RIA; type: cell-based
T1 construct: expressed in transfected cells; host or cells: CHO-3D2 cells
T1 sequence (P23945 18-695): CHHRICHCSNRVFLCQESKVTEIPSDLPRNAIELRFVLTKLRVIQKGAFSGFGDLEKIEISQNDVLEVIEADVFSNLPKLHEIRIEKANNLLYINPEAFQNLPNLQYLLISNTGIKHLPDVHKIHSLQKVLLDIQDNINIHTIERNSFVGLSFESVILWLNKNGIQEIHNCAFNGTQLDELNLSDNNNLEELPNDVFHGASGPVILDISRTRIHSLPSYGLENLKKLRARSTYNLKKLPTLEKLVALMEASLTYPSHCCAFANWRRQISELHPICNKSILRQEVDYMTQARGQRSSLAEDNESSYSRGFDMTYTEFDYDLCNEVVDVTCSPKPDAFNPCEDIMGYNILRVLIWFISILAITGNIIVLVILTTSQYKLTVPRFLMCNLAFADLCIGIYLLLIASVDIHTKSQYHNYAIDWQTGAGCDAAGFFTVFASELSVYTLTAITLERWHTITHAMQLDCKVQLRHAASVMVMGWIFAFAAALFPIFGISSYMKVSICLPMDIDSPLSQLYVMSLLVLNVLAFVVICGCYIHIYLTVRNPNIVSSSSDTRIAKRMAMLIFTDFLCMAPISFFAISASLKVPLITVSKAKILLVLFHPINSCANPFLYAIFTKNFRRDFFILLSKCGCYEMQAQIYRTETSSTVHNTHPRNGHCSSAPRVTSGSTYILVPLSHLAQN
Procedure: The compounds were subsequently diluted in sterile assay medium consisting of Opti-MEM® I (Life Technologies) with 0.1% (w/v) BSA (Sigma), prior to use in the bio-assay. The final concentration of DMSO in the assay is 0.1%.
Plated cells are then incubated at 37° C. in a humidified 5% CO2/95% air, atmosphere.
On the day of the assay, cells were washed three times with 100 μl/well of assay medium consisting of Opti-MEM® I (Life Technologies) with 0.1% (w/v) BSA (Sigma). Medium was removed and 100 μl of assay medium was added to each well. Plates were incubated for an additional 30 minutes at 37° C. […] Reactions were terminated by the addition of 50 μl of 0.2N hydrochloric acid to each well and cAMP-accumulation was measured by radioimmunoassay (RIA) using a commercially available kit (Amersham).
All test compounds were evaluated in a dose-response paradigm ranging from 0.01 to 30 μM. Controls and test compounds were evaluated in quadruplicate in a 96-well format.
Data were analyzed by one-way analysis of variance and significant differences between treatments and control determined by Least Significant Difference test.
Test compounds were compared to the effect of purified human FSH.

human FSH receptor = biological target: T2, human FSH receptor (Homo sapiens, UniProt P23945); test: FSH receptor-dependent CRE-luciferase reporter gene assay (CHO FSH-R 6CRE-Luc cells); type: cell-based; settings: dose-response in presence of EC50 of purified human FSH; read-out: CRE IC50
T2 construct: host or cells: CHO-K1 (CHO FSH-R 6CRE-Luc, 1D7 cells)
T2 sequence (P23945 18-695): T1 sequence (P23945 18-695)
Text: Follicle-Stimulating Hormone Receptor-Dependent CRE-Luciferase Reporter Gene Assay for the Identification of Follicle-Stimulating Hormone (FSH) Antagonists
This procedure was used to identify and determine the relative potencies of human FSH receptor antagonists using a Chinese hamster ovarian cell line that stably produces the human FSH receptor and a luciferase reporter gene regulated by cAMP response elements.
The compounds were subsequently diluted in DMSO to working dilutions of 1 and 20 or 30 mM for 2-dose testing format and 1 μM-10 mM for dose-response format. The DMSO dilutions were diluted 500-fold in sterile growth medium [D-MEM/F-12 (GIBCO/BRL; Grand Island N.Y.) containing 15 mM HEPES, 2 mM 1-glutamine, pyridoxine hydrochloride, phenol red and 5% FetalClone II (HyClone Laboratories, Inc; Logan, Utah), 0.2% DMSO, 100 units penicillin G/ml, and 100 μg streptomycin sulfate/ml (GIBCO/BRL)]. The concentration of the vehicle in each of the compound dilutions was the same. • Positive Controls: Purified human FSH (>98%) was purchased from Cortex Biochem, Inc. (San Leandro, Calif.) and WAY-162002 (an FSH-R thiazolidinone antagonist) was obtained from the Wyeth Research compound repository. Preparation of Cells
The CHO FSH-R 6CRE-Luc cells (1D7 cells) were obtained from Affymax (Palo Alto, Calif.). These Chinese hamster ovary cells (CHO—K1) were genetically engineered to stably express the recombinant human FSH receptor gene and a luciferase reporter gene under the regulation of 6 copies of a cAMP response element. The cells were plated one day prior to treatment into 96-well white opaque plates at a density of 50,000 cells/100 μl/well in growth medium. On the day of treatment, the growth medium was removed from the wells by aspiration and 50 μl of fresh growth medium was added to each well. The cells were incubated at 37° C. in a humidified incubator with 5% CO2/95% air.
The treated cells were incubated for 4 hours at 37° C. in a humidified incubator with 5% CO2/95% air. At the end of-the incubation period, luciferase activity was measured by chemiluminescence using a commercially available kit (LucScreen, Tropix, Inc., Bedford, Mass.) according to the manufacturer's specifications, except that Buffer 1 and Buffer 2 were mixed together in equal proportion prior to the addition of 100 μl of the combined reagents to each well. Chemiluminescence was detected using a luminometer (EG & G Berthold Microlumat LB 96 P, Wallac, Gaithersburg, Md.) with chemiluminescence measured for 1 sec/well. Background luminescence was measured for each well prior to the addition of the LucScreen reagent.
In the 96-well 2-dose format, each compound was tested in duplicate at each dose. […] One plate was used to test a maximum of 22 compounds.
The EC50 of purified human FSH alone was tested in triplicate with each test compound. The doses chosen to test each compound were extrapolated from the initial 2-dose screening process. Along with the test compounds, purified human FSH was also tested in a dose response (0.03, 0.1, 0.3, 1, 3, 10, and 30 ng/ml) for a positive control and quality control. One plate was used for 3 test compounds and the FSH positive control.
Luciferase activity is expressed as relative light units/sec/well. Luciferase activity in antagonist was compared to the appropriate negative and positive controls. For 2-dose testing, results are reported as luciferase activity and are expressed as % inhibition of the response obtained from the EC50 of FSH. For dose-response testing, results are reported as IC50 values. Data were analyzed statistically by one-way analysis of variance with appropriate weighting and transformation and relevant paired test as determined by Biometrics (Wyeth Research, Princeton, N.J.). IC50 values were calculated using the Stat/Excel program developed by Biometrics with appropriate weighting and transformation.

IC50 (hFSH-R): 2 µM
Emax (hFSH-R; read-out: cAMP % efficacy): 78%
IC50 (human FSH receptor): 6.82 µM
Structure (SMILES): COc1ccccc1-c1ccc(C(=O)N2Cc3ccc(C(=O)CCc4cccnc4)n3Cc3ccccc32)cc1 [Example 3, 1-{10-[(2′-Methoxy-1,1′-biphenyl-4-yl)carbonyl]-10,11-dihydro-5H-pyrrolo[2,1-c][1,4]benzodiazepin-3-yl}-3-pyridin-3-ylpropan-1-one]
